Measurements as given in publication PMC8812547 (Proceedings of the National Academy of Sciences of the …, 2022).

How the values were obtained:
[1] = tested on: adult mice (hindpaw); assay: mechanical paw withdrawal threshold; format: in vivo, mouse; details: 200 pmol A803467 with 600 pmol sPm1a; n = 5 to 8; P < 0.001
[2] = tested on: TTX-R NaV channels of small DRG neurons; format: cell-based, mouse; details: A803467 1 μM with sPm1a; TTX 0.5 μM; n = 5
[3] = tested on: adult mice (hindpaw); format: in vivo, mouse; details: 0.2 nmol A803467 coadministered with 0.6 nmol sPm1a, intraplantar; P < 0.001
[4] = tested on: small dorsal root ganglion neurons; format: cell-based, mouse; details: A803467 1 µM with sPm1a; n = 6; sPm1a vs. A803467/sPm1a P = 0.0007
[5] = tested on: KV2.1; details: cited from earlier work

| Molecule | paw withdrawal force (mechanical allodynia) [1] [g] | reduction of sPm1a-sensitive TTX-R NaV component [2] [%] | spontaneous nocifensive behavior, paw flinches [3] [flinches per 15 min] | inhibition of sPm1a-induced neuronal firing [4] | KV2.1 gating modification [5] |
| --- | --- | --- | --- | --- | --- |
| COc1cc(NC(=O)c2ccc(-c3ccc(Cl)cc3)o2)cc(OC)c1 [A803467] | 2.5 ± 0.2 | 87.3 ± 11.1 | 93.8 ± 8.8 | abolished sPm1a-induced neuronal firing | – |
| ScTx1: gating-modifier venom peptide (DCTRMFGACRRDSDCCPHLGCKPTSKYCAWDGTI; Stromatoxin-1; UniProt P60991 1-34, looked up) | – | – | – | – | shifting its activation to more depolarized voltages |
